Laboratory results published in patent US6528041B2, “Process for the preparation of 1-Propyl-2, 4, 5-trimethoxybenzene from toxic β-asarone of acorus calamus or from crude calamus oil containing β-asarone” (Council of Scientific and Industrial Research, priority 2000, dated 2003).

Assays:
albino mice = assay: acute toxicity test for maximum tolerance dose (MTD) as a single dose; type: in vivo; details: for maximum tolerant doses (MTD): albino mice (25±2 g), intraperitoneal single dose, observed for 24 hr
From the text: There has been a lot of research on the effect of the substituents and functional groups which make a substance toxic or eliminate the toxicity. Any chemical substance that is electrophilic or metabolized to electrophilic species are often quite toxic, because electrophilic substances can react covalently with nucleophilic substituents of cellular macromolecules such as DNA, RNA, enzymes and proteins. These irreversible covalent interactions with important cellular macromolecules interfere with the macromolecule's function and can lead to a variety of toxic effects including cancer, hepatotoxicity, reproductive toxicity and developmental toxicity. It has been realised that the side chain of β-asarone contains carbon-carbon double bond, which can be metabolized to epoxide. The epoxide so formed is highly electrophilic and is capable of interacting with biological tissues, and could therefore, be the reason for the toxicity of β-asarone. In view of the above fact, it was possible to reduce the toxicity of β-asarone by hydrogenating the side olefinic bond into 1-propyl-2,4,5-trimethoxybenzene having a single bond as a side chain. The toxicity of the reduced calamus oil as well as of 1-Propyl-2,4,5-trimethoxy-benzene was tested. Toxicity test was performed on albino mice (body weight 25±2 g). […] Where the initial pilot dose was lethal, the sample was diluted. This was the acute toxicity test for maximum tolerance dose (MTD) as a single dose. […] It must be noted that further reduction in toxicity is possible by further dilution as the odor intensity of 1-Propyl-2,4,5-trimethoxybenzene and reduced calamus oil is substantially stronger than both β-asarone and calamus oil.

animals = details: cited from earlier work
human lymphocytes = human lymphocytes in-vitro after metabolic activation; cited from earlier work
[1] = tested on: [3H] spiperone binding sites; details: in vitro; cited from earlier work
[2] = tested on: [3H] raclopride binding sites; details: in vitro; cited from earlier work
rats = details: cited from earlier work

Compound: C/C=C\c1cc(OC)c(OC)cc1OC [β-asarone, cis-2,4,5-trimethoxy-1-propenylbenzene]
- maximum tolerant doses (MTD) (albino mice): 0.12 ml/kg b.w.
- tumour induction (animals; after oral administration): induce tumours in the duodenal region
- carcinogenicity (animals; animals, higher percentage of β-asarone): carcinogenic
- chromosome damaging effect (human lymphocytes): chromosome damaging effect

Compound: CCCc1cc(OC)c(OC)cc1OC [1-Propyl-2,4,5-trimethoxybenzene]
- toxicity relative to the unreduced starting material (times less toxic) (albino mice; 1-Propyl-2,4,5-trimethoxybenzene vs β-asarone, reduced calamus oil vs calamus oil, from MTD in albino mice): nearly five times and five
- maximum tolerant doses (MTD) (albino mice): 0.56 ml/kg b.w.

Compound: CCCc1cc(OC)c(OC)c(C(=O)NCC2CCCN2CC)c1O (stereo not drawn) [salicylamide derivative, 5,6-dimethoxy-N[(1-ethyl-2-pyrrolidinyl)methyl]-3-propylsalicylamide]
- affinity for [3H] spiperone binding sites [1]: high and stereoselective affinity
- affinity for [3H] raclopride binding sites [2]: high and stereoselective affinity

Compound: C/C=C/c1cc(OC)c(OC)cc1OC [α-Asarone]
- lethality (rats): fatal
